Experimental data as given in the NIST ThermoML archive (doi:10.1016/j.fluid.2014.04.002).

Test: refractive index (Na D-line) (dimensionless); xn = mol fraction of the nth substance listed
Details: 101 kPa, Liquid, Standard Abbe refractometry

CCOC(=O)C(C)O (stereo not drawn) [DL-ethyl lactate] + CC(O)CO
refractive index
Details | x1 = 0.1 | x1 = 0.2 | x1 = 0.3 | x1 = 0.3999 | x1 = 0.4998 | x1 = 0.599 | x1 = 0.6999 | x1 = 0.7994 | x1 = 0.8997 | x1 = 1
288.15 K | 1.43169 | 1.42919 | 1.42688 | 1.42476 | 1.42287 | 1.42116 | 1.41959 | 1.41814 | 1.41676 | 1.41537
293.15 K | 1.42994 | 1.42736 | 1.42499 | 1.4228 | 1.42086 | 1.4191 | 1.41747 | 1.41597 | 1.41452 | 1.41307
298.15 K | 1.42819 | 1.42554 | 1.42309 | 1.42085 | 1.41883 | 1.41701 | 1.41532 | 1.41377 | 1.41227 | 1.41076
303.15 K | 1.42642 | 1.42369 | 1.42118 | 1.41886 | 1.41679 | 1.41491 | 1.41316 | 1.41155 | 1.40999 | 1.40843
308.15 K | 1.42461 | 1.42181 | 1.41924 | 1.41688 | 1.41475 | 1.41282 | 1.41102 | 1.40935 | 1.40773 | 1.4061
313.15 K | 1.42279 | 1.41992 | 1.41729 | 1.41488 | 1.4127 | 1.41071 | 1.40884 | 1.40711 | 1.40542 | 1.40374
318.15 K | 1.42098 | 1.41801 | 1.41529 | 1.41282 | 1.41055 | 1.4085 | 1.40659 | 1.40481 | 1.40309 | 1.40136
323.15 K | 1.41918 | 1.41615 | 1.41337 | 1.41082 | 1.40849 | 1.40637 | 1.40437 | 1.40252 | 1.40073 | 1.39898

CCOC(=O)C(C)O (stereo not drawn) [DL-ethyl lactate] + OCCCO
refractive index
Details | x1 = 0.1001 | x1 = 0.2001 | x1 = 0.3 | x1 = 0.3998 | x1 = 0.4996 | x1 = 0.5997 | x1 = 0.7 | x1 = 0.8 | x1 = 0.8997 | x1 = 1
288.15 K | 1.43819 | 1.43549 | 1.43282 | 1.43021 | 1.42764 | 1.4251 | 1.42262 | 1.42017 | 1.41776 | 1.41537
293.15 K | 1.43668 | 1.43388 | 1.43111 | 1.4284 | 1.42573 | 1.42312 | 1.42055 | 1.41803 | 1.41554 | 1.41307
298.15 K | 1.43517 | 1.43227 | 1.4294 | 1.42658 | 1.42383 | 1.42114 | 1.41851 | 1.41592 | 1.41336 | 1.41076
303.15 K | 1.43362 | 1.43062 | 1.42766 | 1.42476 | 1.42192 | 1.41914 | 1.4164 | 1.41371 | 1.41107 | 1.40843
308.15 K | 1.43214 | 1.42902 | 1.42592 | 1.42292 | 1.41996 | 1.41713 | 1.41427 | 1.41152 | 1.40882 | 1.4061
313.15 K | 1.43065 | 1.42743 | 1.42421 | 1.42111 | 1.41805 | 1.41506 | 1.41215 | 1.40932 | 1.40654 | 1.40374
318.15 K | 1.42914 | 1.4258 | 1.42249 | 1.41923 | 1.41608 | 1.41301 | 1.41004 | 1.40715 | 1.40428 | 1.40136
323.15 K | 1.42761 | 1.42417 | 1.42075 | 1.41741 | 1.41415 | 1.41097 | 1.40792 | 1.40493 | 1.40198 | 1.39898

COCCOCCOCCOCCOC [2,5,8,11,14-pentaoxapentadecane] + CCOC(=O)C(C)O
refractive index
Details | x2 = 0 | x2 = 0.0999 | x2 = 0.1999 | x2 = 0.2999 | x2 = 0.3998 | x2 = 0.4999 | x2 = 0.6001 | x2 = 0.6998 | x2 = 0.8001 | x2 = 0.9
288.15 K | 1.43553 | 1.43413 | 1.43253 | 1.43141 | 1.42997 | 1.42831 | 1.42648 | 1.42438 | 1.42214 | 1.41886
293.15 K | 1.43338 | 1.43195 | 1.4304 | 1.42925 | 1.42782 | 1.42614 | 1.42431 | 1.42219 | 1.4199 | 1.41662
298.15 K | 1.43123 | 1.42983 | 1.42826 | 1.42712 | 1.42566 | 1.42398 | 1.42212 | 1.41995 | 1.41764 | 1.41436
303.15 K | 1.42906 | 1.42761 | 1.42612 | 1.42496 | 1.42351 | 1.4218 | 1.41993 | 1.41778 | 1.41537 | 1.41208
308.15 K | 1.42697 | 1.42558 | 1.42399 | 1.4228 | 1.42135 | 1.41964 | 1.41774 | 1.41556 | 1.41312 | 1.4098
313.15 K | 1.42447 | 1.42319 | 1.42182 | 1.42059 | 1.41916 | 1.41744 | 1.41552 | 1.41332 | 1.41084 | 1.40749
318.15 K | 1.42206 | 1.42095 | 1.41972 | 1.41848 | 1.41703 | 1.41528 | 1.41335 | 1.41108 | 1.40853 | 1.40517
323.15 K | 1.41985 | 1.4188 | 1.41762 | 1.41635 | 1.41488 | 1.41315 | 1.41119 | 1.40889 | 1.40622 | 1.40288

CCOC(=O)C(C)O (stereo not drawn) [DL-ethyl lactate] + C1CCOC1
refractive index
Details | x1 = 0.1002 | x1 = 0.2001 | x1 = 0.3001 | x1 = 0.4001 | x1 = 0.4999 | x1 = 0.5999 | x1 = 0.6999 | x1 = 0.7999 | x1 = 0.8997 | x1 = 1
288.15 K | 1.41059 | 1.41119 | 1.4118 | 1.41241 | 1.41298 | 1.41349 | 1.41393 | 1.41431 | 1.41475 | 1.41537
293.15 K | 1.40801 | 1.40867 | 1.40932 | 1.40998 | 1.41058 | 1.41112 | 1.41157 | 1.41197 | 1.41242 | 1.41307
298.15 K | 1.40539 | 1.40614 | 1.40687 | 1.40756 | 1.40816 | 1.40871 | 1.40922 | 1.40965 | 1.41017 | 1.41076
303.15 K | 1.40277 | 1.40359 | 1.40438 | 1.4051 | 1.40571 | 1.40628 | 1.40684 | 1.4073 | 1.40787 | 1.40843
308.15 K | 1.40015 | 1.40102 | 1.40187 | 1.40264 | 1.40326 | 1.40392 | 1.40445 | 1.40493 | 1.40546 | 1.4061
313.15 K | 1.3975 | 1.39842 | 1.39936 | 1.40014 | 1.4008 | 1.40149 | 1.40205 | 1.40255 | 1.4031 | 1.40374
318.15 K | 1.39481 | 1.39578 | 1.39672 | 1.39755 | 1.39831 | 1.39899 | 1.3996 | 1.40015 | 1.4007 | 1.40136
323.15 K | 1.39211 | 1.39315 | 1.39416 | 1.39503 | 1.39583 | 1.39655 | 1.3972 | 1.39778 | 1.39834 | 1.39898
